{
  "source": "patent US20200360477A1",
  "about": "“INHALABLE FORMULATIONS FOR KINASE INHIBITION” (Aerovate Therapeutics, Inc., priority 2019, published 2020)",
  "key": {"KIT": {"molecular_target": "KIT (Homo sapiens, UniProt P10721)", "sequence (P10721 26-976)": "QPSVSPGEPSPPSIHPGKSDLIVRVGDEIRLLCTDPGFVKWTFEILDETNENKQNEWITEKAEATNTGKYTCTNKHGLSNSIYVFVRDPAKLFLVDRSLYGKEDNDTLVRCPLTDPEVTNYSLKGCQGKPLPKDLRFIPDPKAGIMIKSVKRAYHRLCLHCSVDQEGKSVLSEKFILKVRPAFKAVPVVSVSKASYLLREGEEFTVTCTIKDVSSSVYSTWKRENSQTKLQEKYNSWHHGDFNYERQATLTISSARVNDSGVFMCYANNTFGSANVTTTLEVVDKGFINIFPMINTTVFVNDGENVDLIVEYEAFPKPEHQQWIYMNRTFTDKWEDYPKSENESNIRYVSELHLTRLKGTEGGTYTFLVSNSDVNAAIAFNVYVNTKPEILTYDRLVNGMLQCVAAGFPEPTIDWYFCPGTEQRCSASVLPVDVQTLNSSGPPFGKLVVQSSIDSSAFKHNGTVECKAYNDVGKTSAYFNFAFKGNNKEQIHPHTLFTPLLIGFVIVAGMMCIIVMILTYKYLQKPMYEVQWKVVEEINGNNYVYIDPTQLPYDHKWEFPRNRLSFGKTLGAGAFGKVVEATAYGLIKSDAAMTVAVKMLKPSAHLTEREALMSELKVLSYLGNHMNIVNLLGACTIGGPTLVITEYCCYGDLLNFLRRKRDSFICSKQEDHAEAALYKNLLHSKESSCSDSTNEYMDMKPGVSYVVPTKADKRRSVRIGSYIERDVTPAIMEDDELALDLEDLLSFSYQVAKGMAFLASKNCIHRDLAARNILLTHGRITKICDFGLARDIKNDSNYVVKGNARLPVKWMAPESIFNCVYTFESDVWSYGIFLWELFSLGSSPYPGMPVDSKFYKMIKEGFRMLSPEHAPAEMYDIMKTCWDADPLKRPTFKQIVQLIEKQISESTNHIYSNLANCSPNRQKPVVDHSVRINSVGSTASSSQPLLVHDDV", "assay": "KINOMEscan competition binding assay"}, "[1]": {"molecular_target": "T1, phosphatidylinositol 5-phosphate 4-kinase type-2 gamma (PI42C) (Homo sapiens, UniProt Q8TBX8)", "T1 construct": "purchased Eurofins DiscoverX Corporation (KINOMEscan); host or cells: E. coli BL21-derived host (T7 phage) or HEK-293", "T1 sequence (Q8TBX8 1-421)": "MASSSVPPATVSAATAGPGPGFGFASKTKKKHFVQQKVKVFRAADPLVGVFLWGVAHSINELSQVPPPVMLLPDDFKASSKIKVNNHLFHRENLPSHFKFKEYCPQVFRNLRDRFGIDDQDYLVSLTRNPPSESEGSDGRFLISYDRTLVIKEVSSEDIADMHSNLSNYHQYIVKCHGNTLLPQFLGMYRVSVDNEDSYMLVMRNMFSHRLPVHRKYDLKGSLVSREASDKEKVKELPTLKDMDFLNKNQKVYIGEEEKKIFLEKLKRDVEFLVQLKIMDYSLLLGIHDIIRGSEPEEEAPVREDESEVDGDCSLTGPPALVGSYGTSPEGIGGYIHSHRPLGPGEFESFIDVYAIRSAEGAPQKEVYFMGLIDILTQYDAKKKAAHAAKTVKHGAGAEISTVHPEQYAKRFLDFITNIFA", "assay": "KINOMEscan competition binding assay", "experimental": "The ligand-bound beads were blocked with excess biotin and washed with blocking buffer (SeaBlock (Pierce), 1% BSA, 0.05% Tween 20, 1 mM DTT) to remove unbound ligand and to reduce nonspecific binding. […] Test compounds were prepared as 111× stocks in 100% DMSO. Kds were determined using an 11-point 3-fold compound dilution series with three DMSO control points.\n(§1) Each was a final volume of 0.02 ml."}, "RET": {"molecular_target": "T2, RET (Homo sapiens, UniProt P07949)", "T2 construct": "purchased Eurofins DiscoverX Corporation (KINOMEscan); host or cells: E. coli BL21-derived host (T7 phage) or HEK-293", "assay": "KINOMEscan competition binding assay", "experimental": "(§2) The ligand-bound beads were blocked with excess biotin and washed with blocking buffer (SeaBlock (Pierce), 1% BSA, 0.05% Tween 20, 1 mM DTT) to remove unbound ligand and to reduce nonspecific binding. […] Kds were determined using an 11-point 3-fold compound dilution series with three DMSO control points.\nas §1"}, "LYN": {"molecular_target": "T3, LYN (Homo sapiens, UniProt P07948)", "T3 construct": "purchased Eurofins DiscoverX Corporation (KINOMEscan); host or cells: E. coli BL21-derived host (T7 phage) or HEK-293", "assay": "KINOMEscan competition binding assay", "experimental": "as §2, §1"}, "PDGFR-β": {"molecular_target": "T4, PDGFR-β (Homo sapiens, UniProt P09619)", "T4 construct": "purchased Eurofins DiscoverX Corporation (KINOMEscan); host or cells: E. coli BL21-derived host (T7 phage) or HEK-293", "assay": "KINOMEscan competition binding assay", "experimental": "as §2, §1"}, "VEGFR2": {"molecular_target": "T5, VEGFR2 (Homo sapiens, UniProt P35968)", "T5 construct": "purchased Eurofins DiscoverX Corporation (KINOMEscan); host or cells: E. coli BL21-derived host (T7 phage) or HEK-293", "T5 sequence (P35968 20-1356)": "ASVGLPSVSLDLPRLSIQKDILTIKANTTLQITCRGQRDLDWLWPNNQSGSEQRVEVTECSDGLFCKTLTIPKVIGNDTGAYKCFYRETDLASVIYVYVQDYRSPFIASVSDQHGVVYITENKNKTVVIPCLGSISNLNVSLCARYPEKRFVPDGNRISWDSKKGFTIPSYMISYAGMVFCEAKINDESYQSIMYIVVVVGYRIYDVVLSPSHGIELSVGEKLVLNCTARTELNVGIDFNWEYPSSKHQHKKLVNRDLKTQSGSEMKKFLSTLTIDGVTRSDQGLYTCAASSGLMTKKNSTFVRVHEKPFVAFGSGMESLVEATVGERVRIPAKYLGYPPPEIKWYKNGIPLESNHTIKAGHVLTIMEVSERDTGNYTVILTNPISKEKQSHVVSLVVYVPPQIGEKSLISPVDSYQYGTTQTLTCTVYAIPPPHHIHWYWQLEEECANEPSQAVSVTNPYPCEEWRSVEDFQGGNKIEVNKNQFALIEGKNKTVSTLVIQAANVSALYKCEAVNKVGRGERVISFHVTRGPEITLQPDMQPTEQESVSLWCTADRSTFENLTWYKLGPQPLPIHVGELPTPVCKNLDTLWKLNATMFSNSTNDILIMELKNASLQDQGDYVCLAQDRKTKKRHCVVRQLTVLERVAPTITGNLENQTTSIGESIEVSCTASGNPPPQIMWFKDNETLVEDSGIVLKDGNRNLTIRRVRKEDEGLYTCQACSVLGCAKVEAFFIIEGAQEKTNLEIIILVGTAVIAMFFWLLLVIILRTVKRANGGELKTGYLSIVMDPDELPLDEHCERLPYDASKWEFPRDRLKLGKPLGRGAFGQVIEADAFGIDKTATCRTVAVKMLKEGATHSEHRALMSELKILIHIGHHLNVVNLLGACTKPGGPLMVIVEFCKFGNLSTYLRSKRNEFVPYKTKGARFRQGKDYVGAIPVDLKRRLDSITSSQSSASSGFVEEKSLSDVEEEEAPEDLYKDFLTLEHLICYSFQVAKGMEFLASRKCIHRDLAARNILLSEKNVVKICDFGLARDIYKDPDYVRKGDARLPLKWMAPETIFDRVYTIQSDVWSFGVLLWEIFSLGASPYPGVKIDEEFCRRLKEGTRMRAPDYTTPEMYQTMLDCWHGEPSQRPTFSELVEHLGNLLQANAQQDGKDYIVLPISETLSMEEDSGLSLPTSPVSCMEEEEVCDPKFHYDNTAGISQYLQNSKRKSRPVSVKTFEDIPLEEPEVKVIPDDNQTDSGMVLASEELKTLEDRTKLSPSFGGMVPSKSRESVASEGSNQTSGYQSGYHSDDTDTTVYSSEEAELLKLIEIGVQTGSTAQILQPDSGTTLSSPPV", "assay": "KINOMEscan competition binding assay", "experimental": "as §2, §1"}, "PIK4CB": {"molecular_target": "T6, PIK4CB (Homo sapiens, UniProt Q9UBF8)", "T6 construct": "purchased Eurofins DiscoverX Corporation (KINOMEscan); host or cells: E. coli BL21-derived host (T7 phage) or HEK-293", "assay": "KINOMEscan competition binding assay", "experimental": "as §2, §1"}, "FGR": {"molecular_target": "T7, FGR (Homo sapiens, UniProt P09769)", "T7 construct": "purchased Eurofins DiscoverX Corporation (KINOMEscan); host or cells: E. coli BL21-derived host (T7 phage) or HEK-293", "assay": "KINOMEscan competition binding assay", "experimental": "as §2, §1"}, "DDR2": {"molecular_target": "T8, DDR2 (Homo sapiens, UniProt Q16832)", "T8 construct": "purchased Eurofins DiscoverX Corporation (KINOMEscan); host or cells: E. coli BL21-derived host (T7 phage) or HEK-293", "T8 sequence (Q16832 22-855)": "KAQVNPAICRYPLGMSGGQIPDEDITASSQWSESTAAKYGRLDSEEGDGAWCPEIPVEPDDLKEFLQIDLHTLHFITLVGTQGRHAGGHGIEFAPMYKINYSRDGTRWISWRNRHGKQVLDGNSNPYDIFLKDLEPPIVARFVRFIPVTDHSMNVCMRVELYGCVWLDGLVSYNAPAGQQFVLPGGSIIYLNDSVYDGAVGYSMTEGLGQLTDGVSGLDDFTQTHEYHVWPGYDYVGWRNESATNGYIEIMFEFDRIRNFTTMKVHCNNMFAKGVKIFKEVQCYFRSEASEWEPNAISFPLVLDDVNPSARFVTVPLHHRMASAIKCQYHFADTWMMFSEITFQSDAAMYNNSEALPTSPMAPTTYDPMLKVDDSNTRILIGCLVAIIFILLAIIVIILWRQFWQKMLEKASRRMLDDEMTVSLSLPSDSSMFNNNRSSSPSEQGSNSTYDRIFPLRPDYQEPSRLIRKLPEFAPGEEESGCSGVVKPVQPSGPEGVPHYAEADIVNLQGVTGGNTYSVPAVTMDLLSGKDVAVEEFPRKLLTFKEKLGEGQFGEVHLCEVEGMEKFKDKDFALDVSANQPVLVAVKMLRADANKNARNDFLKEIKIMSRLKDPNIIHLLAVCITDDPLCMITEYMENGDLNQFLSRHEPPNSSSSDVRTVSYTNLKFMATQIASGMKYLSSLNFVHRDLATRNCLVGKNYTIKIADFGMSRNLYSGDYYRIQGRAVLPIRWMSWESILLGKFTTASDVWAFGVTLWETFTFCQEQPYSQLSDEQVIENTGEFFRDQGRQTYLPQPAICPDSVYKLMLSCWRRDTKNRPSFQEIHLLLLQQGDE", "assay": "KINOMEscan competition binding assay", "experimental": "as §2, §1"}, "PDGFR-α": {"molecular_target": "T9, PDGFR-α (Homo sapiens, UniProt P16234)", "T9 construct": "purchased Eurofins DiscoverX Corporation (KINOMEscan); host or cells: E. coli BL21-derived host (T7 phage) or HEK-293", "T9 sequence (P16234 24-1089)": "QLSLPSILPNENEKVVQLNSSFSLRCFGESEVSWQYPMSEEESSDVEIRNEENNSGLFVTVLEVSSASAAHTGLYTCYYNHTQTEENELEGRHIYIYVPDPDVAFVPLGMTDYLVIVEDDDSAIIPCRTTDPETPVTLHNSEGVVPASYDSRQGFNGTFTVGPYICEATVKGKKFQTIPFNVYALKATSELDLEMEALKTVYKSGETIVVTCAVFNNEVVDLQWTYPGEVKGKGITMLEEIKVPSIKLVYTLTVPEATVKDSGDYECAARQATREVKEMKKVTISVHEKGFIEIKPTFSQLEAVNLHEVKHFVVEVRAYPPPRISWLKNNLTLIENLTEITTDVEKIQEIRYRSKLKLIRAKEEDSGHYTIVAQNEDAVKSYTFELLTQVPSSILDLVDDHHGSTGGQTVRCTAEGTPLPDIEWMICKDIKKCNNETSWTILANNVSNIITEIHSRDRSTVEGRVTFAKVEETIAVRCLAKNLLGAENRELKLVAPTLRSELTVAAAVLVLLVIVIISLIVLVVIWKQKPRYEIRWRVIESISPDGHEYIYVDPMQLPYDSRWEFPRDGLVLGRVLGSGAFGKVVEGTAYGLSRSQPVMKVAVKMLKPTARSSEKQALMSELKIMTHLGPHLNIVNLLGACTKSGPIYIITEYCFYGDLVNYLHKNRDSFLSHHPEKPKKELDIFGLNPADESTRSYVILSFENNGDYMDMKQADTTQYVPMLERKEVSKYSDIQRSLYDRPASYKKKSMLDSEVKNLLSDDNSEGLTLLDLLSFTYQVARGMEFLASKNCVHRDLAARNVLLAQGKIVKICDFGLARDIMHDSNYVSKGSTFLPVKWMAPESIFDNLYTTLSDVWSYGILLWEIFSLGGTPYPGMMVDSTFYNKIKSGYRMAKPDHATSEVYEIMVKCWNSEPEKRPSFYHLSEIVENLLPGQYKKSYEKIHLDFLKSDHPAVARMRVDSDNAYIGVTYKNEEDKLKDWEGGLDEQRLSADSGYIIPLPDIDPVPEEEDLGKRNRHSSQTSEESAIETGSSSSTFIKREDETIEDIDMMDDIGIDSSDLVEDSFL", "assay": "KINOMEscan competition binding assay", "experimental": "as §2, §1"}, "FLT4": {"molecular_target": "FLT4 (Homo sapiens, UniProt P35916)", "sequence (P35916 25-1363)": "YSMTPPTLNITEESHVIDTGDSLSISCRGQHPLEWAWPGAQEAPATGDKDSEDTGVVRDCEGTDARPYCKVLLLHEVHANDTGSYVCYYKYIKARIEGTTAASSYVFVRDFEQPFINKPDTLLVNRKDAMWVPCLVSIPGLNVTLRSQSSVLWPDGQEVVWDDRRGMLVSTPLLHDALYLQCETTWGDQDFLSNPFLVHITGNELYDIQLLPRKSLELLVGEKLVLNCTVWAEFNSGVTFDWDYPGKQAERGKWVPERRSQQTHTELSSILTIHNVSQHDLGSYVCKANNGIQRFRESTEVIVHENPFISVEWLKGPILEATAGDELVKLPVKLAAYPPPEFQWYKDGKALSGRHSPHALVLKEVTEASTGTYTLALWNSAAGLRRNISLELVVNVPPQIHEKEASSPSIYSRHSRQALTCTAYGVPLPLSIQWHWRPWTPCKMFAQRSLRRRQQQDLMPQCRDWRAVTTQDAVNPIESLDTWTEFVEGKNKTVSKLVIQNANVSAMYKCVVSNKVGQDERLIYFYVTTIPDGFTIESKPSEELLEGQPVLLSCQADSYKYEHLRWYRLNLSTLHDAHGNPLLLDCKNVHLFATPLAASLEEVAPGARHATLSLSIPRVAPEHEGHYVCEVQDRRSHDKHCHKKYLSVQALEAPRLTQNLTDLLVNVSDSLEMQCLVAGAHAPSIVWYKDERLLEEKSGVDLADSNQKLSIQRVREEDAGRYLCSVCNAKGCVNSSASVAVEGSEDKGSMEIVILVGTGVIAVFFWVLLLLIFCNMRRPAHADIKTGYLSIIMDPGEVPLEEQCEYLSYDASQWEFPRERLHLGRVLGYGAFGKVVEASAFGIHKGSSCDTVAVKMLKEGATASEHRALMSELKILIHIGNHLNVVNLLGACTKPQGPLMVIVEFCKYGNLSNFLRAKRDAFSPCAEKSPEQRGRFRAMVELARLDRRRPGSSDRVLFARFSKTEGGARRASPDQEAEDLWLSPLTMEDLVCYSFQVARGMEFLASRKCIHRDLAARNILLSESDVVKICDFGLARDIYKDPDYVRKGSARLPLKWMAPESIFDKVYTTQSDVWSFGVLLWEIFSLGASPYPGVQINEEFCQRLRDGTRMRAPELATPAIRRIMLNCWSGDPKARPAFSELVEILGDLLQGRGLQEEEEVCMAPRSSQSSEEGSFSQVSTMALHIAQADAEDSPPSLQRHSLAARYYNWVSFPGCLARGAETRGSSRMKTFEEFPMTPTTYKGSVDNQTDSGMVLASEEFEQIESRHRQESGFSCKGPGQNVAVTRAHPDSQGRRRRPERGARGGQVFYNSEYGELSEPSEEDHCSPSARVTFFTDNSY", "assay": "KINOMEscan competition binding assay"}, "ABL-1-nonphosphorolated [2]": {"molecular_target": "T10, ABL-1-nonphosphorolated (Homo sapiens, UniProt P00519)", "conditions": "ABL1"}, "HCK": {"molecular_target": "HCK (Homo sapiens, UniProt P08631)", "assay": "KINOMEscan competition binding assay"}, "CSF1R": {"molecular_target": "CSF1R (Homo sapiens, UniProt P07333)", "assay": "biochemical"}, "SRC": {"molecular_target": "SRC (Homo sapiens, UniProt P12931)", "assay": "KINOMEscan competition binding assay"}, "LCK": {"molecular_target": "LCK (Homo sapiens, UniProt P06239)", "assay": "KINOMEscan competition binding assay"}, "FRK": {"molecular_target": "FRK (Homo sapiens, UniProt P42685)", "assay": "KINOMEscan competition binding assay"}, "FYN": {"molecular_target": "FYN (Homo sapiens, UniProt P06241)", "assay": "KINOMEscan competition binding assay"}, "DDR1": {"molecular_target": "DDR1 (Homo sapiens, UniProt Q08345)", "assay": "KINOMEscan competition binding assay"}, "ABL-1-nonphosphorolated [3]": {"molecular_target": "T10, ABL-1-nonphosphorolated", "assay": "biochemical", "conditions": "read-out: Compound Activity Remaining at 1 μM (%)"}, "[4]": {"conditions": "read-out: Compound Activity Remaining at 1 μM (%)"}},
  "note": "pKd: −log10 of the molar value. Like-named read-outs stand apart in the source and are kept apart here.",
  "data": [
    {"compound": "imatinib [Compound A, reference compound]", "values": [
      {"measurement": "Compound Activity Remaining at 1 μM (%)", "setting": "KIT; KIT, 1 μM compound", "value": 0.5, "unit": "%"},
      {"measurement": "kinase found to be inhibited", "setting": "[1]", "value": "inhibited"},
      {"measurement": "pKd", "setting": "RET", "value": "< 5.00"},
      {"measurement": "Compound Activity Remaining at 1 μM (%)", "setting": "RET; 1 μM compound", "value": 98, "unit": "%"},
      {"measurement": "Compound Activity Remaining at 1 μM (%)", "setting": "LYN; 1 μM compound", "value": 30, "unit": "%"},
      {"measurement": "Compound Activity Remaining at 1 μM (%)", "setting": "PDGFR-β; 1 μM compound", "value": 0.15, "unit": "%"},
      {"measurement": "Compound Activity Remaining at 1 μM (%)", "setting": "VEGFR2; 1 μM compound", "value": 70, "unit": "%"},
      {"measurement": "Compound Activity Remaining at 1 μM (%)", "setting": "PIK4CB; 1 μM compound", "value": 59, "unit": "%"},
      {"measurement": "Compound Activity Remaining at 1 μM (%)", "setting": "FGR; 1 μM compound", "value": 70, "unit": "%"},
      {"measurement": "Compound Activity Remaining at 1 μM (%)", "setting": "DDR2; 1 μM compound", "value": 0.8, "unit": "%"},
      {"measurement": "Compound Activity Remaining at 1 μM (%)", "setting": "PDGFR-α; 1 μM compound", "value": 0.95, "unit": "%"},
      {"measurement": "pKd", "setting": "FLT4; FLT4", "value": "< 5.00"},
      {"measurement": "Compound Activity Remaining at 1 μM (%)", "setting": "FLT4; FLT4, 1 μM compound", "value": 87, "unit": "%"}
    ]},
    {"compound": "COc1ccc(-c2cncc(N[C@@H](C)c3cccc(NC(=O)c4cncc(C)c4)c3)n2)cc1OC", "note": "[Compound B]", "values": [
      {"measurement": "kinase found to be inhibited", "setting": "ABL-1-nonphosphorolated [2]", "value": "inhibited"},
      {"measurement": "pKd", "setting": "KIT", "value": 8.33},
      {"measurement": "remaining binding at 1 µM", "setting": "KIT; [4]", "value": 0, "unit": "%"},
      {"measurement": "pKd", "setting": "HCK", "value": 7.44},
      {"measurement": "remaining binding at 1 µM", "setting": "HCK; [4]", "value": 3.3, "unit": "%"},
      {"measurement": "pKd", "setting": "CSF1R", "value": 8.21},
      {"measurement": "remaining activity at 1 µM", "setting": "CSF1R; [4]", "value": 0.7, "unit": "%"},
      {"measurement": "pKd", "setting": "SRC", "value": 6.89},
      {"measurement": "remaining binding at 1 µM", "setting": "SRC; [4]", "value": 6.4, "unit": "%"},
      {"measurement": "pKd", "setting": "RET", "value": 7.72},
      {"measurement": "remaining binding at 1 µM", "setting": "RET; 1 μM compound", "value": 3.9, "unit": "%"},
      {"measurement": "pKd", "setting": "LYN", "value": 7.62},
      {"measurement": "remaining binding at 1 µM", "setting": "LYN; 1 μM compound", "value": 7.3, "unit": "%"},
      {"measurement": "pKd", "setting": "PDGFR-β", "value": 9.09},
      {"measurement": "remaining binding at 1 µM", "setting": "PDGFR-β; 1 μM compound", "value": 0, "unit": "%"},
      {"measurement": "pKd", "setting": "VEGFR2", "value": 7.82},
      {"measurement": "remaining binding at 1 µM", "setting": "VEGFR2; 1 μM compound", "value": 0.25, "unit": "%"},
      {"measurement": "pKd", "setting": "PIK4CB", "value": 6.82},
      {"measurement": "remaining binding at 1 µM", "setting": "PIK4CB; 1 μM compound", "value": 3.8, "unit": "%"},
      {"measurement": "pKd", "setting": "FGR", "value": 7.04},
      {"measurement": "remaining binding at 1 µM", "setting": "FGR; 1 μM compound", "value": 21, "unit": "%"},
      {"measurement": "pKd", "setting": "DDR2", "value": 7.72},
      {"measurement": "remaining binding at 1 µM", "setting": "DDR2; 1 μM compound", "value": 1.8, "unit": "%"},
      {"measurement": "pKd", "setting": "PDGFR-α", "value": 8.40},
      {"measurement": "remaining binding at 1 µM", "setting": "PDGFR-α; 1 μM compound", "value": 0.35, "unit": "%"},
      {"measurement": "pKd", "setting": "LCK", "value": 7.66},
      {"measurement": "remaining binding at 1 µM", "setting": "LCK; [4]", "value": 1.1, "unit": "%"},
      {"measurement": "pKd", "setting": "FRK", "value": 7.96},
      {"measurement": "remaining binding at 1 µM", "setting": "FRK; [4]", "value": 5.3, "unit": "%"},
      {"measurement": "pKd", "setting": "FLT4", "value": 7.74},
      {"measurement": "remaining binding at 1 µM", "setting": "FLT4; [4]", "value": 12, "unit": "%"},
      {"measurement": "pKd", "setting": "FYN", "value": 7.26},
      {"measurement": "remaining binding at 1 µM", "setting": "FYN; [4]", "value": 9.7, "unit": "%"},
      {"measurement": "pKd", "setting": "DDR1", "value": 8.46},
      {"measurement": "remaining binding at 1 µM", "setting": "DDR1; [4]", "value": 0.2, "unit": "%"},
      {"measurement": "remaining activity at 1 µM", "setting": "ABL-1-nonphosphorolated [3]", "value": 3.3, "unit": "%"}
    ]}
  ]
}
